Experiments:
[1] = system: NRF2-ARE signaling pathway; test: cells; type: cell-based; settings: for NRF2 (CD, μM): concentration required to double luciferase activity, AREc32 cells, 24 h
Experimental: AREc32 cells were plated in 96-well white plates (2 × 10^4 cells/well). […]. The AREc32 cells constitutively express the plasmid pGL-8xARE that implements eight copies of the EpRE sequences, followed by the luciferase reporter gene. Therefore, NRF2 induction is related to the activation of EpRE sequences, expressing luciferase at the same extent as EpRE sequences are activated. The Luciferase Assay System (Promega E1500) was used according to the provider’s protocol, and luminescence was quantified in an Orion II microplate luminometer (Berthold, Germany). Fold induction of luciferase activity was normalized to basal conditions. Data are expressed as CD values, expressing the concentration required to double the luciferase activity. CD values were calculated from dose–response curves generated from the fold induction of control conditions versus inducer concentration and fitted by nonlinear regression and data interpolated to twofold induction concentration.[68]

hMAO-A = target: T1, hMAO-A (Homo sapiens, UniProt P21397); test: biochemical; settings: read-out: hMAO-A (IC50); recombinant hMAO-A, p-tyramine substrate
T1 sequence (P21397 1-527): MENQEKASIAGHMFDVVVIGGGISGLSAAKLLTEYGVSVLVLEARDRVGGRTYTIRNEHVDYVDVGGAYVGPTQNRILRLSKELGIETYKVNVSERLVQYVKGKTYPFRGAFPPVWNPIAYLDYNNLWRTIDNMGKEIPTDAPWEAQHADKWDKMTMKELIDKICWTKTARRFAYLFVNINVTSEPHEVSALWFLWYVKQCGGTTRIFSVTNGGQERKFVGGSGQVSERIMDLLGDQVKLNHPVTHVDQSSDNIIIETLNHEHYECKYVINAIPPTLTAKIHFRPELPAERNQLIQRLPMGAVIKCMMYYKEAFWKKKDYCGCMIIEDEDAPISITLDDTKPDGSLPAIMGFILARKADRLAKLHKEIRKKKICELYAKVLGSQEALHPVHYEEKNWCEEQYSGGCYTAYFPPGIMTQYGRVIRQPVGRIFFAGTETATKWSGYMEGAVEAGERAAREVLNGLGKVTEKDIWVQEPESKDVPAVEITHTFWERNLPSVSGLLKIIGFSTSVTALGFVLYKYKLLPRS
Experimental: (§1) The hMAO-A/B inhibition of all compounds was determined using the Amplex Red MAO assay kit.
(§2) Assays were performed following the general procedure previously described.[98] […] The specific fluorescence emission was calculated after subtracting the background activity, which was determined from wells containing all components except the hMAO isoforms, which were replaced with PBS.

hMAO-B = target: T2, hMAO-B (Homo sapiens, UniProt P27338); test: biochemical; settings: read-out: hMAO-B (IC50); recombinant hMAO-B, p-tyramine substrate
T2 sequence (P27338 1-520): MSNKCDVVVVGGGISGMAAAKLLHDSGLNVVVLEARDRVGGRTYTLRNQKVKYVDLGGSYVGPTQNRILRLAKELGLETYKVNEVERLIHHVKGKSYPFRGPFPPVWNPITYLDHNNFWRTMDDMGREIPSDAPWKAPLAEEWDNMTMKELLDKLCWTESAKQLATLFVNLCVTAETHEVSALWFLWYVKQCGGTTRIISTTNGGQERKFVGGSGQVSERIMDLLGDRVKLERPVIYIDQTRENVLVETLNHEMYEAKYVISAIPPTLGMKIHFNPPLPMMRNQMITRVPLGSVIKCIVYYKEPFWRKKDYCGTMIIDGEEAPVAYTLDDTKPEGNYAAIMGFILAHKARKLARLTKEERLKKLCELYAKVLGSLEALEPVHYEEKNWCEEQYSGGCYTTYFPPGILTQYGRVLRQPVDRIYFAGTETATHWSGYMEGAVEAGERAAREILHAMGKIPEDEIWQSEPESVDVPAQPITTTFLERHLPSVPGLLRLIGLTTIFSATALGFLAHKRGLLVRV
Experimental: as §1, §2

in vitro = in vitro ADME; settings: for Papp at 240 min, 100 μg mL^–1: PAMPA, pH 7.4, class from PAMPA-BBB Pe, read-out: CNS-permeability prediction; for PAMPA-BBB (Pe, 10^–6 cm s^–1): porcine brain lipid, PBS/EtOH (70:30), 240 min, 25 °C
[2] = Oxygen radical absorbance capacity (ORAC-FL) assay; settings: trolox = 1.0
Experimental: 2,2′-Azobis-(amidinopropane) dihydrochloride (AAPH), trolox, and fluorescein (FL) were purchased from Sigma-Aldrich. The reaction was carried out in a 75 mM phosphate buffer (pH 7.4), and the final reaction mixture was 200 μL. […] Antioxidant curves (fluorescence vs time) were first normalized to the curve of the blank corresponding to the same assay, and the area under the curve (AUC) of fluorescence decay was calculated. The net AUC corresponding to a sample was calculated by subtracting the AUC corresponding to the blank. Regression equations between the net AUC and antioxidant concentration were calculated for all the samples.

[3] = system: rat primary cortical neurons; test: Neuroprotection against OA-induced toxicity in rat primary cortical neuronal cultures (MTT); settings: for neuroprotection against OA-induced toxicity: compound 1 μM, OA 10 nM
QR2 = target: T3, QR2 (Mesocricetus auratus, UniProt A0ABM2YAB8); test: biochemical; settings: for inhibition at 10 µM: read-out: QR2 percentage of inhibition (in brackets)
T3 sequence (A0ABM2YAB8 1-231): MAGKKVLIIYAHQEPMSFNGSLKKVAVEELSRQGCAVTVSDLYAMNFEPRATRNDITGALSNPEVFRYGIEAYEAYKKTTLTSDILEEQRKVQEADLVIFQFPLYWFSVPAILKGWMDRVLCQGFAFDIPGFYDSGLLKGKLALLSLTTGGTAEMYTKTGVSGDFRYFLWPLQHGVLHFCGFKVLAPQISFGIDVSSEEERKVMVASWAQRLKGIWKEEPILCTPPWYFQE
Experimental: The QR2 experiments were performed in membrane homogenates of hamster brains (https://www.eurofins.fr, catalog ref. 0088). […] First, radioligand displacement was measured at a fixed compound concentration (10 μM) in each receptor.

adult mice NSCs = test: Neurogenic studies in SGZ-derived neurospheres; type: cell-based, mouse; settings: 10 μM
Experimental: Adult mice NSCs were isolated from SGZ of the dentate gyrus of the hippocampus and grown as free-floating neurospheres (NS).[72],[78] The neurogenic potential of each compound was determined using fluorescence confocal microscopy by quantifying the expression of two well-known neuronal markers: human β-III-tubulin (TuJ-1 clone) and microtubule-associated protein 2 (MAP-2). TuJ-1 is expressed in immature neurons, whereas the expression of MAP-2 indicates a consolidated mature neuronal stage.[79] Given that neurogenesis involves not only the proliferation of NSC but also the migration of newly generated cells, the greatest migration distance promoted by each compound was also measured (Figure 8).
Adult male C57BL/6 mice (3 months old) were used in order to determine neurogenesis activity. […] DAPI staining was used as a nuclear marker. Fluorescent representative images were acquired with a Nikon fluorescence microscope 90i coupled to a digital camera Qi. The microscope configuration was adjusted to produce the optimum signal-to-noise ratio. […] Quantification was undertaken using the image analySIS software (Soft Imaging System Corp., Münster, Germany) and normalized to total nuclei (DAPI-stained). The intensity of immunostaining of neurites from TuJ1-labeled cells and the number of MAP-2-positive cells were estimated from nine neurospheres per condition over three independent experiments. The outgrowth of the neurosphere cells was examined under a phase-contrast microscope and the farthest distance of cell migration was calculated from the edge of the sphere. At least 10 plated neurospheres per treatment were analyzed.

mouse hippocampal slices = settings: 1 μM, OA 1 μM, 6 h
Experimental: Once the treatment was ended, the cell viability was measured by the MTT method, cell death with the fluorescent probe PI (1 μg/mL), and ROS production with the fluorescent probe H2DCFDA (10 μL/mL).
Fluorescence from whole slices was measured as the mean intensity with an inverted Nikon eclipse T2000-U microscope (Nikon Instruments). […] The results were normalized to the basal condition, which was considered as 100%. Image analysis was performed using Fiji software.

[4] = system: human neuroblastoma SH-SY5Y cell line; test: Cell viability per se in SH-SY5Y cells (MTT); settings: 100 μM, 24 h
Experimental: The cells from the 3rd to 12th passage were seeded at a density of 80,000 cells/well in 96-well plates and were used to assess the properties of our compounds.
After treatment, the SH-SY5Y cells, rat primary neuronal cultures, and hippocampal slices were incubated for 90 min with tetrazolium salt MTT (0.5 mg/mL) solution. This assay is based on the reduction of MTT (yellow salt) to purple insoluble formazan crystals by oxidoreductase enzymes from living cells. Thereafter, in order to solubilize the formazan crystal, the cells/slices were incubated for another 45 min in dimethyl sulfoxide (DMSO). […] The basal absorbance was set to 100%, and the results were normalized to basal conditions.

Experimental pKa = type: physicochemical
Experimental: Introduction of the propargyl group in derivatives 2 was achieved by alkylation of the NH group of the oxadiazolone ring with propargyl bromide in basic media (K2CO3) and acetone. […] However, alkylation of the 3-hydroxylated derivative 3l was carried out overnight at room temperature (rt) in order to avoid possible secondary reactions through the phenolic group (experimental pKa for NH-oxadiazolone, 7.04 ± 0.02; for phenol 8.72 ± 0.02, Supporting Information 1, Table S1 and Figure S11).

hMT2R = target: T4, hMT2R (Homo sapiens, UniProt P49286); test: hMT2R radioligand displacement in transfected CHO cells; settings: read-out: hMT2R binding affinity (Ki)
T4 construct: host or cells: Chinese hamster ovary cells
T4 sequence (P49286 1-362): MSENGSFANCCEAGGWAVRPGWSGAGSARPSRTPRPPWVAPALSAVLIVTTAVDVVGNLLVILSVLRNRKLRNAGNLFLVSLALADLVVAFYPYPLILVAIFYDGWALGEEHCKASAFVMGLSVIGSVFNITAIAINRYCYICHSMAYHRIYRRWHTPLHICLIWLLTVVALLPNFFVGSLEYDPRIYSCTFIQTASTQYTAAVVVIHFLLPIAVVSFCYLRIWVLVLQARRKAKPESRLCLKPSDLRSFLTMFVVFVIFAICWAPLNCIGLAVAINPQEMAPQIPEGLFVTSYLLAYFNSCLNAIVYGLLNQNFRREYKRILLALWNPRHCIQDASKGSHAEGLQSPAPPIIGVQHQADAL
Experimental: Assays in MT1R and MT2R were carried out using human receptors that were stably transfected in Chinese hamster ovary cells (https://www.eurofins.fr, catalog refs. 1538 and 1687). The QR2 experiments were performed in membrane homogenates of hamster brains (https://www.eurofins.fr, catalog ref. 0088). […] First, radioligand displacement was measured at a fixed compound concentration (10 μM) in each receptor. […] (E)-Resveratrol and melatonin were tested for comparative purposes.

| Compound | NRF2 (CD, μM) [1] [µM] | IC50 (hMAO-A) [µM] | IC50 (hMAO-B) [µM] | Papp at 240 min, 100 μg mL^–1 (in vitro) [×10⁻⁶ cm/s] | PAMPA-BBB (Pe, 10^–6 cm s^–1) (in vitro) | ORAC (trolox equiv) [2] [trolox equiv] | viability at 1 µM ([3]; Rattus norvegicus, Primary cortical neuron, read-out: cell viability) [%] | neuroprotection against OA-induced toxicity [3] | IC50 (QR2) [µM] | TuJ-1 and MAP-2 marked cells (adult mice NSCs) | cell migration distance (adult mice NSCs) | cell viability (MTT) (mouse hippocampal slices) | reduction of cell viability [4] | inhibition at 10 µM (QR2) [%] | capacity to differentiate NSCs (adult mice NSCs; data not shown) | EC (2-fold induction) ([1]; Arec32, 24 h, read-out: NRF2 (CD, μM), concentration required to double luciferase activity, AREc32 cells, 24 h) [µM] | pKa (Experimental pKa; experimental pKa for NH-oxadiazolone) | pKa (Experimental pKa; experimental pKa for phenol) | Ki (hMT2R) [µM] |
| --- | --- | --- | --- | --- | --- | --- | --- | --- | --- | --- | --- | --- | --- | --- | --- | --- | --- | --- | --- |
| C#CCn1nc(/C=C/c2cccc(OC)c2)oc1=O [4d, 5-[(E)-2-(3-Methoxyphenyl)ethenyl]-3-(prop-2-yn-1-yl)-1,3,4-oxadiazol-2(3H)-one] | 7.44 ± 0.34 | > 50 | 0.64 ± 0.06 | > 4 | 7.5 ± 0.3 10^–6 cm s^–1 | 0.3 ± 0.06 | 86 | slightly higher neuroprotection profile than resveratrol | 0.4 ± 0.03 | clearly increased | extended | – | – | – | – | – | – | – | – |
| Oc1ccc(/C=C/c2cc(O)cc(O)c2)cc1 [(E)-resveratrol, reference compound] | 21.0 ± 2.0 | – | 29.9 ± 1.8 | – | – | – | – | – | – | – | – | significantly increased the cell viability to almost basal levels, in a similar way to resveratrol treatment | over 50% | – | – | – | – | – | – |
| C#CCn1nc(/C=C/c2ccccc2)oc1=O [4a, 5-[(E)-2-Phenylethenyl]-3-(prop-2-yn-1-yl)-1,3,4-oxadiazol-2(3H)-one] | 16.9 ± 0.4 | > 50 | 9.87 ± 1.22 | > 4 | 13.6 ± 0.5 10^–6 cm s^–1 | <0.1 | – | not able to significantly reduce neuronal death | > 10 | – | – | – | around 30% | 44 | poor capacity to differentiate NSCs | – | – | – | – |
| O=c1[nH]nc(/C=C/c2cccc(O)c2)o1 [3l, 5-[(E)-2-(3-Hydroxyphenyl)ethenyl]-1,3,4-oxadiazol-2(3H)-one] | – | > 50 | > 50 | < 2 | ≤ 0.5 10^–6 cm s^–1 | 3.8 ± 0.1 | – | – | – | clearly increased | extended | – | – | – | – | > 60 | 7.04 ± 0.02 | 8.72 ± 0.02 | – |
| C#CCNC(=O)/C=C/c1cccc(OC)c1 [6d, (2E)-3-(3-Methoxyphenyl)-N-(prop-2-yn-1-yl)prop-2-enamide] | – | > 50 | > 50 | > 4 | 4.1 ± 0.2 10^–6 cm s^–1 | <0.1 | – | – | ~10 | – | – | – | – | 76 | – | – | – | – | 1.4 |

Source: paper PMC8958504 (Journal of Medicinal Chemistry, 2022)
